The record followed here is patent US11400132B2 (NOVALIQ GMBH, priority 2016, dated 2022).

A short description of the data set: Water solubility / residual water in 1-perfluorobutyl-pentane. The class given is physicochemical. The conditions noted are these: based on weight of 1-perfluorobutylpentane. The text has this:
The predominant contribution to residual water content in the composition can be attributed to water sorption or association with ciclosporin (e.g. not limited to, but for example derived from manufacturing process, or its transport and storage).
The 1-perfluorobutyl-pentane as featured in any of the compositions or methods described herein is preferably essentially free of water. In such case, the presence of residual water in the composition according to the invention is derived from the ciclosporin or optionally, if present, one or more excipients that is functionally not a co-solvent.

Turning to `CCCCCC(F)(F)C(F)(F)C(F)(F)C(F)(F)F` [F4H5, 1-perfluorobutyl-pentane], the “water solubility in 1-perfluorobutylpentane” value was “less than 1.20×10^−5 wt %”.
